The assay relates to gray mold fungus (Botrytis cinerea). Put plainly: Cucumber leaf disk preventive test against gray mold fungus (spray inoculation, onset area rate). Type of assay: in vivo. As to conditions: single compound, 15° C., four days. The procedure: True leaf of cucumber is punched out with cork borer to 13 mm in diameter to prepare a leaf disk. In 24 well microwell plate that is dispensed with 1 ml 0.8% water agar, the leaf disk is placed such that the upper side of the leaf is in an upward direction. Thereto is added 20 micro liter a testing solution prepared by mixing a dimethyl sulfoxide solution of the present compound (racemate) and a dimethyl sulfoxide solution of benthiavalicarb to a predetermined concentration to treat the leaf disk.
After confirming that the testing medical solution is dried, conidium of gray mold fungus (Botrytis cinerea) is suspended into potato dextrose broth (DIFCO) in a density of about 10^5 conidium/mL and is then subjected to a spray inoculation. After leaving to stand the leaf disk in a growth chamber set up at 15° C. for four days, an onset area on the leaf is measured and then calculated an onset area rate (hereinafter, referred to as an onset area rate of treated group).
The same operation is carried out with 20 micro liter water instead of 20 micro liter a testing medicine solution to calculate an onset area rate (hereinafter, referred to an onset area rate of non-treated group).
A preventive value is calculated from the above onset area rate of treated group and the onset area rate of non-treated group by the following equation: Preventive value(%)=100×(A−B)/A
A: an onset area rate of treated group
B: an onset area rate of non-treated group
The same operations as described in Test Example 1 are carried out with iprovalicarb instead of benthiavalicarb, so as to calculate a preventive value.
Also for comparison, the same operations as described in Test Example 1 are carried out with the exception that the testing medicine solution is substituted with a predetermined concentration of each dimethyl sulfoxide solution of the present compound (racemate) or iprovalicarb, so as to calculate respective preventive values.
For comparison, the same operations as described in Test Example 1 are carried out with the exception that the testing medicine solution is substituted with a predetermined concentration of a dimethyl sulfoxide solution of benthiavalicarb, so as to calculate a preventive value.

Setting [1] is: treatment concentration 0.5 ppm.
The mark [2] stands for this setting: treatment concentration 5.0 ppm.

We go through 2 compounds from patent US8916595B2, “Plant disease controlling composition and method for controlling plant disease” (Sumitomo Chemical Company, Limited, priority 2010, dated 2014).

Turning to `CC(C)[C@H](NC(=O)O)C(=O)N[C@H](C)c1nc2ccc(F)cc2s1` [benthiavalicarb], the “preventive value (%)” value came out at 0% under setting [1] and 15% under setting [2].

As to `Cc1ccc(C(C)NC(=O)[C@@H](NC(=O)OC(C)C)C(C)C)cc1` (stereo partly shown) [iprovalicarb], the “preventive value (%)” value is, setting by setting: under setting [1], 0%; under setting [2], 15%.
